Assay in all cases: MIC, microdilution broth method (NCCLS)
What all share (format): cell-based
A general note: Broth dilution looks for growth in wells or tubes with falling amounts of substance.

Experiment [1] deals with E. coli OC2605. Conditions: A: E. coli OC2605, 35° C., 16-20 hours. Here is the method:
(§1) Minimal inhibitory concentration (MIC) has been an indicator of in vitro antibacterial activity widely used in the art. The in vitro antimicrobial activity of the compounds was determined by the microdilution broth method following the test method from the National Committee for Clinical Laboratory Standards (NCCLS). This method is described in the NCCLS Document M7-A4, Vol. 17, No. 2, “Methods for Dilution Antimicrobial Susceptibility Test for Bacteria that Grow Aerobically—Fourth Edition”, which is incorporated herein by reference.
(§2) In this method two-fold serial dilutions of drug in cation adjusted Mueller-Hinton broth are added to wells in microdilution trays. The test organisms are prepared by adjusting the turbidity of actively growing broth cultures so that the final concentration of test organism after it is added to the wells is approximately 5×10^4 CFU/well.
(§3) Following inoculation of the microdilution trays, the trays are incubated at 35° C. for 16-20 hours and then read. […] The amount of growth in the wells containing the test compound is compared with the amount of growth in the growth-control wells (no test compound) used in each tray. As set forth in Table 1, compounds of the present invention were tested against a variety of Gram positive and Gram negative pathogenic bacteria resulting in a range of activities depending on the organism tested.

The test system of experiment [2] is E. faecalis ATCC29212. The conditions noted are these: C: E. faecalis ATCC29212, 35° C., 16-20 hours. On the procedure: as §1, §2, §3
Experiment [3] concerns H. influenzae ATCC49247. The conditions noted are these: E: H. influenzae ATCC49247, 35° C., 16-20 hours. On the procedure: as §1, §2, §3
Experiment [4] deals with S. aureus ATCC29213. Conditions: B: S. aureus ATCC29213, 35° C., 16-20 hours. Here is the method: as §1, §2, §3
The subject of experiment [5] is S. pneumoniae ATCC49619. The conditions noted are these: D: S. pneumoniae ATCC49619, 35° C., 16-20 hours. On the procedure:
as §1, §2, §3

≈ marks a conversion by molar mass, not a printed value. Read-outs that look alike come from different tables or passages of the source.

Experimental findings from US6613747B2, “6-O-carbamoyl ketolide antibacterials” (Ortho-McNeil Pharmaceutical, Inc., priority 2000, dated 2003) are described below.

As for `CC[C@H]1OC(=O)[C@H](C)C(=O)[C@H](C)[C@@H](O[C@@H]2O[C@H](C)C[C@H](N(C)C)[C@H]2O)[C@](C)(OC(=O)NCc2ccc(-n3cncn3)c(F)c2)C[C@@H](C)C(=O)[C@H](C)[C@H]2NC(=O)O[C@@]21C` [Compound 55], the MIC in experiment [1] worked out at 16 µg/mL (≈ 19.6 µM); in experiment [2] it was 0.12 µg/mL (≈ 0.147 µM); in experiment [3], 4 µg/mL (≈ 4.9 µM); in experiment [4], 0.5 µg/mL (≈ 0.612 µM); in experiment [5], 0.03 µg/mL (≈ 0.0367 µM).
With `CC[C@H]1OC(=O)[C@H](C)C(=O)[C@H](C)[C@@H](O[C@@H]2O[C@H](C)C[C@H](N(C)C)[C@H]2O)[C@](C)(OC(=O)NCc2ccc(-n3ccnc3)cc2)C[C@@H](C)C(=O)[C@H](C)[C@H]2NC(=O)O[C@@]21C` [Compound 8], the MIC in experiment [1] was determined as 16 µg/mL (≈ 20.1 µM); in experiment [2] it was 0.12 µg/mL (≈ 0.15 µM); in experiment [3], 4 µg/mL (≈ 5.01 µM); in experiment [4], 1 µg/mL (≈ 1.25 µM); in experiment [5] it was 0.03 µg/mL (≈ 0.0376 µM).
Regarding `CC[C@H]1OC(=O)[C@H](C)C(=O)[C@H](C)[C@@H](O[C@@H]2O[C@H](C)C[C@H](N(C)C)[C@H]2O)[C@](C)(OC(=O)NC/C=C/c2cnn(-c3ccccc3)c2)C[C@@H](C)C(=O)[C@H](C)[C@H]2NC(=O)O[C@@]21C` [Compound 62], the MIC was more than 16 µg/mL in experiment [1]; 0.12 µg/mL (≈ 0.146 µM) in experiment [2]; 4 µg/mL (≈ 4.85 µM) in experiment [3]; 0.25 µg/mL (≈ 0.303 µM) in experiment [4]; 0.06 µg/mL (≈ 0.0728 µM) in experiment [5].
The corresponding values for `CC[C@H]1OC(=O)[C@H](C)C(=O)[C@H](C)[C@@H](O[C@@H]2O[C@H](C)C[C@H](N(C)C)[C@H]2O)[C@](C)(OC(=O)NC/C=C/c2ccncc2)C[C@@H](C)C(=O)[C@H](C)[C@H]2NC(=O)O[C@@]21C` [Compound 30] are 16 µg/mL (≈ 21.1 µM), 0.12 µg/mL (≈ 0.158 µM), 2 µg/mL (≈ 2.64 µM), 0.5 µg/mL (≈ 0.659 µM) and 0.03 µg/mL (≈ 0.0395 µM).
On to `CC[C@H]1OC(=O)[C@H](C)C(=O)[C@H](C)[C@@H](O[C@@H]2O[C@H](C)C[C@H](N(C)C)[C@H]2O)[C@](C)(OC(=O)NCCNCc2cnc3ccccc3c2)C[C@@H](C)C(=O)[C@H](C)[C@H]2NC(=O)O[C@@]21C` [Compound 114], for which the MIC in experiment [1] was more than 16 µg/mL; in experiment [2], 0.25 µg/mL (≈ 0.303 µM); in experiment [3] it was 4 µg/mL (≈ 4.84 µM); in experiment [4], 2 µg/mL (≈ 2.42 µM); in experiment [5], 0.06 µg/mL (≈ 0.0726 µM).
As for `CCC1OC(=O)C(C)(F)C(=O)C(C)C(OC2OC(C)CC(N(C)C)C2O)C(C)(OC(=O)NCC=Cc2ccc(-c3ncccn3)cc2)CC(C)C(=NO)C(C)C2NC(=O)OC12C` (stereo not shown) [Compound 123], the MIC was 16 µg/mL (≈ 18.4 µM) in experiment [1]; 0.12 µg/mL (≈ 0.138 µM) in experiment [2]; 4 µg/mL (≈ 4.6 µM) in experiment [3]; 0.25 µg/mL (≈ 0.288 µM) in experiment [4]; 0.03 µg/mL (≈ 0.0345 µM) in experiment [5].
For the compound `CC[C@H]1OC(=O)[C@H](C)C(=O)[C@H](C)[C@@H](O[C@@H]2O[C@H](C)C[C@H](N(C)C)[C@H]2O)[C@](C)(OC(=O)NCCCc2ccncc2)C[C@@H](C)C(=O)[C@H](C)[C@H]2NC(=O)O[C@@]21C` [Compound 24], the MIC in experiment [1] was 16 µg/mL (≈ 21 µM); in experiment [2] it was 0.12 µg/mL (≈ 0.158 µM); in experiment [3], 2 µg/mL (≈ 2.63 µM); in experiment [4], 1 µg/mL (≈ 1.31 µM); in experiment [5], 0.06 µg/mL (≈ 0.0789 µM).
For `CC[C@H]1OC(=O)[C@H](C)C(=O)[C@H](C)[C@@H](O[C@@H]2O[C@H](C)C[C@H](N(C)C)[C@H]2O)[C@](C)(OC(=O)NCC#Cc2ccccc2)C[C@@H](C)C(=O)[C@H](C)[C@H]2NC(=O)O[C@@]21C` [Compound 13], the MIC in experiment [1] is more than 16 µg/mL; in experiment [2], 0.25 µg/mL (≈ 0.331 µM); in experiment [3], 8 µg/mL (≈ 10.6 µM); in experiment [4], 1 µg/mL (≈ 1.32 µM); in experiment [5] it was 0.06 µg/mL (≈ 0.0794 µM).
Turning to `CC[C@H]1OC(=O)[C@H](C)C(=O)[C@H](C)[C@@H](O[C@@H]2O[C@H](C)C[C@H](N(C)C)[C@H]2O)[C@](C)(OC(=O)NC/C=C/c2ccccc2)C[C@@H](C)C(=O)[C@H](C)[C@H]2NC(=O)O[C@@]21C` [Compound 4], the MIC in experiment [1] was more than 16 µg/mL; in experiment [2], 0.12 µg/mL (≈ 0.158 µM); in experiment [3], 1 µg/mL (≈ 1.32 µM); in experiment [4] it was 0.25 µg/mL (≈ 0.33 µM); in experiment [5], 0.03 µg/mL (≈ 0.0396 µM).
With `CC[C@H]1OC(=O)[C@H](C)C(=O)[C@H](C)[C@@H](O[C@@H]2O[C@H](C)C[C@H](N(C)C)[C@H]2O)[C@](C)(OC(=O)NCc2ccc(-c3ncccn3)cc2F)C[C@@H](C)C(=O)[C@H](C)[C@H]2NC(=O)O[C@@]21C` [Compound 87], the MIC in experiment [1] came to 16 µg/mL (≈ 19.3 µM); in experiment [2], 0.06 µg/mL (≈ 0.0725 µM); in experiment [3], 4 µg/mL (≈ 4.83 µM); in experiment [4], 0.25 µg/mL (≈ 0.302 µM); in experiment [5], 0.03 µg/mL (≈ 0.0362 µM).
In the case of `CC[C@H]1OC(=O)[C@H](C)C(=O)[C@H](C)[C@@H](O[C@@H]2O[C@H](C)C[C@H](N(C)C)[C@H]2O)[C@](C)(OC(=O)NC/C=C/c2ccc3nccnc3c2)C[C@@H](C)C(=O)[C@H](C)[C@H]2NC(=O)O[C@@]21C` [Compound 41], the MIC amounted to 16 µg/mL (≈ 19.8 µM) in experiment [1]; 0.12 µg/mL (≈ 0.148 µM) in experiment [2]; 1 µg/mL (≈ 1.23 µM) in experiment [3]; 0.25 µg/mL (≈ 0.309 µM) in experiment [4]; 0.03 µg/mL (≈ 0.037 µM) in experiment [5].
The matching figures for `CC[C@H]1OC(=O)[C@H](C)C(=O)[C@H](C)[C@@H](O[C@@H]2O[C@H](C)C[C@H](N(C)C)[C@H]2O)[C@](C)(OC(=O)NCCNC(=O)c2ccc(-c3ccccc3)cc2)C[C@@H](C)C(=O)[C@H](C)[C@H]2NC(=O)O[C@@]21C` [Compound 111]: more than 16 µg/mL, 0.5 µg/mL (≈ 0.578 µM), 4 µg/mL (≈ 4.62 µM), 1 µg/mL (≈ 1.16 µM) and 0.06 µg/mL (≈ 0.0694 µM).
Turning to `CC[C@H]1OC(=O)[C@H](C)C(=O)[C@H](C)[C@@H](O[C@@H]2O[C@H](C)C[C@H](N(C)C)[C@H]2O)[C@](C)(OC(=O)NCc2ccc(-c3cc[nH]n3)cc2)C[C@@H](C)C(=O)[C@H](C)[C@H]2NC(=O)O[C@@]21C` [Compound 39], the MIC in experiment [1] is more than 16 µg/mL; in experiment [2], 0.12 µg/mL (≈ 0.15 µM); in experiment [3], 1 µg/mL (≈ 1.25 µM); in experiment [4], 1 µg/mL (≈ 1.25 µM); in experiment [5], 0.06 µg/mL (≈ 0.0752 µM).
In the case of `CC[C@H]1OC(=O)[C@H](C)C(=O)[C@H](C)[C@@H](O[C@@H]2O[C@H](C)C[C@H](N(C)C)[C@H]2O)[C@](C)(OC(=O)NC/C=C/c2cccc(-c3ncccn3)c2)C[C@@H](C)C(=O)[C@H](C)[C@H]2NC(=O)O[C@@]21C` [Compound 66], the MIC in experiment [1] was more than 16 µg/mL; in experiment [2], 0.12 µg/mL (≈ 0.144 µM); in experiment [3] it was 4 µg/mL (≈ 4.78 µM); in experiment [4], 0.5 µg/mL (≈ 0.598 µM); in experiment [5], 0.06 µg/mL (≈ 0.0718 µM).
For `CC[C@H]1OC(=O)[C@H](C)C(=O)[C@H](C)[C@@H](O[C@@H]2O[C@H](C)C[C@H](N(C)C)[C@H]2O)[C@](C)(OC(=O)NC/C=C/c2ccc(-c3cnccn3)cc2)C[C@@H](C)C(=O)[C@H](C)[C@H]2NC(=O)O[C@@]21C` [Compound 77, Carbamic acid, [(2E)-3-(4-pyrazinylphenyl)-2-propenyl]-, (3aS,4R,7R,9R,10R,11R,13R,15R,15aR)-4-ethyltetradecahydro-3a,7,9,11,13,15-hexamethyl-2,6,8,14-tetraoxo-10-[[3,4,6-trideoxy-3-(dimethylamino)-β-D-xylo-hexopyranosyl]oxy]-2H-oxacyclotetradecino[4,3-d]oxazol-11-yl ester], the MIC in experiment [1] (Escherichia coli, read-out: MIC) came out at 16 µg/mL (≈ 19.1 µM); in experiment [2] (Enterococcus faecalis, read-out: MIC) it was 0.12 µg/mL (≈ 0.144 µM); in experiment [3] (Haemophilus influenzae, read-out: MIC), 4 µg/mL (≈ 4.78 µM); in experiment [4] (Staphylococcus aureus, read-out: MIC), 0.12 µg/mL (≈ 0.144 µM); in experiment [5] (Streptococcus pneumoniae, read-out: MIC) it was 0.03 µg/mL (≈ 0.0359 µM).
For `CC[C@H]1OC(=O)[C@H](C)C(=O)[C@H](C)[C@@H](O[C@@H]2O[C@H](C)C[C@H](N(C)C)[C@H]2O)[C@](C)(OC(=O)NCc2ccc(-c3ccncn3)cc2)C[C@@H](C)C(=O)[C@H](C)[C@H]2NC(=O)O[C@@]21C` [Compound 79], the MIC in experiment [1] amounted to 8 µg/mL (≈ 9.88 µM); in experiment [2] it was 0.06 µg/mL (≈ 0.0741 µM); in experiment [3], 2 µg/mL (≈ 2.47 µM); in experiment [4] it was 0.25 µg/mL (≈ 0.309 µM); in experiment [5], 0.03 µg/mL (≈ 0.037 µM).
Regarding `CC[C@H]1OC(=O)[C@H](C)C(=O)[C@H](C)[C@@H](O[C@@H]2O[C@H](C)C[C@H](N(C)C)[C@H]2O)[C@](C)(OC(=O)NC/C=C/c2ccc(Br)cc2)C[C@@H](C)C(=O)[C@H](C)[C@H]2NC(=O)O[C@@]21C` [Compound 16], the MIC is 8 µg/mL (≈ 9.56 µM) in experiment [1]; 0.12 µg/mL (≈ 0.143 µM) in experiment [2]; 4 µg/mL (≈ 4.78 µM) in experiment [3]; 0.5 µg/mL (≈ 0.598 µM) in experiment [4]; 0.03 µg/mL (≈ 0.0359 µM) in experiment [5].
